Assay results as given in ChEMBL document CHEMBL5244235, “Diarylpentanoids with antitumor activity: A critical review of structure-activity relationship studies” (Eur J Med Chem, 2020).
Several values for one entry are separate records, joined by “and”; a condition that tells them apart may be missing. Equal values may be shown once. One block for each molecule: values may come before it.

What was measured:
MV4-11 = assay: Antiproliferative activity against human MV4-11 cells assessed as cell viability by WST-1 assay; format: functional, cell-based
NCI-H23 = assay: Antiproliferative activity against human NCI-H23 cells assessed as cell viability by WST-1 assay; format: functional, cell-based
MDA-MB-468 = assay: Antiproliferative activity against human MDA-MB-468 cells assessed as cell viability by WST-1 assay; format: functional, cell-based
A549 [1] = assay: Antiproliferative activity against human A549 cells assessed as cell viability by WST-1 assay; format: functional, cell-based
MG-63 = assay: Antiproliferative activity against human MG-63 cells assessed as cell viability by WST-1 assay; format: functional, cell-based
MDA-MB-231 [2] = assay: Antiproliferative activity against human MDA-MB-231 cells assessed as cell viability by WST-1 assay; format: functional, cell-based
HUVEC [3] = assay: Anti-angiogenesis activity in HUVEC cells assessed as cell growth inhibition; format: functional, cell-based; settings: Homo sapiens
SVR = assay: Anti-angiogenesis activity in mouse SVR cells assessed as cell growth inhibition; format: functional, cell-based
RPMI-7951 = assay: Growth inhibition of human RPMI-7951 cells measured after 72 hrs by microplate reader analysis; format: functional, cell-based
MDA-MB-231 [4] = assay: Growth inhibition of human MDA-MB-231 cells measured after 72 hrs by microplate reader analysis; format: functional
[5] = Anti-angiogenesis activity in […] MS-1 cells assessed as cell growth inhibition; format: functional, cell-based
HeLa [6] = assay: Antiproliferative activity against human HeLa cells assessed as cell growth inhibition measured after 24 hrs by MTT assay; format: functional, cell-based
HepG2 = assay: Antiproliferative activity against human HepG2 cells assessed as cell growth inhibition measured after 24 hrs by MTT assay; format: functional, cell-based; settings: HepG2, 24 h
THP-1 = assay: Antiproliferative activity against human THP-1 cells assessed as cell growth inhibition measured after 24 hrs by MTT assay; format: functional, cell-based; settings: THP-1, 24 h
K562 = assay: Antiproliferative activity against human K562 cells assessed as cell growth inhibition measured after 24 hrs by MTT assay; format: functional, cell-based; settings: K562, 24 h
MCF7 [7] = assay: Antiproliferative activity against human MCF7 cells assessed as cell growth inhibition measured after 72 hrs; format: functional, cell-based; settings: MCF7, 72 h
[8] = Antiproliferative activity against human PK-1 cells assessed as cell growth inhibition measured after 72 hrs; format: functional, cell-based; settings: PK-1, 72 h
PC-3 = assay: Antiproliferative activity against human PC-3 cells assessed as cell growth inhibition measured after 72 hrs; format: functional, cell-based; settings: PC-3, 72 h
A549 [9] = assay: Antiproliferative activity against human A549 cells assessed as cell growth inhibition measured after 72 hrs; format: functional, cell-based; settings: A549, 72 h
A-431 = assay: Antiproliferative activity against human A-431 cells assessed as cell growth inhibition measured after 72 hrs; format: functional, cell-based; settings: A-431, 72 h
GCIY = assay: Antiproliferative activity against human GCIY cells assessed as cell growth inhibition measured after 72 hrs; format: functional, cell-based
HuCCT-1 = assay: Antiproliferative activity against human HuCCT-1 cells assessed as cell growth inhibition measured after 72 hrs; format: functional, cell-based; settings: HuCCT-1, 72 h
G-361 = assay: Antiproliferative activity against human G-361 cells assessed as cell growth inhibition measured after 72 hrs; format: functional, cell-based; settings: G-361, 72 h
8505C = assay: Antiproliferative activity against human 8505C cells assessed as cell growth inhibition measured after 72 hrs; format: functional, cell-based
ACHN = assay: Antiproliferative activity against human ACHN cells assessed as cell growth inhibition measured after 72 hrs; format: functional, cell-based
HCT-116 [10] = assay: Antiproliferative activity against human HCT-116 cells assessed as cell growth inhibition measured after 72 hrs; format: functional, cell-based; settings: HCT-116, 72 h
Huh-7 = assay: Antiproliferative activity against human Huh-7 cells assessed as cell growth inhibition measured after 72 hrs; format: functional, cell-based; settings: Huh-7, 72 h
[11] = Antiproliferative activity against human SH-10-TC cells assessed as cell growth inhibition measured after 72 hrs; format: functional, cell-based
DLD-1 [12] = assay: Antiproliferative activity against human DLD-1 cells assessed as cell growth inhibition measured after 72 hrs; format: functional, cell-based; settings: DLD-1, 72 h
[13] = Antiproliferative activity against human OVK18 cells assessed as cell growth inhibition measured after 72 hrs; format: functional, cell-based; settings: OVK18, 72 h
KYSE-30 = assay: Antiproliferative activity against human KYSE-30 cells assessed as cell growth inhibition measured upto 72 hrs by MTT assay; format: functional, cell-based; settings: KYSE-30, 72 h
AGS = assay: Antiproliferative activity against human AGS cells assessed as cell growth inhibition measured upto 72 hrs by MTT assay; format: functional, cell-based
Ca-Ski = assay: Antiproliferative activity against human Ca-Ski cells assessed as cell growth inhibition measured after 72 hrs by MTT assay; format: functional, cell-based
HeLa [14] = assay: Antiproliferative activity against human HeLa cells assessed as cell growth inhibition measured after 72 hrs by MTT assay; format: functional, cell-based
MCF7 [15] = assay: Antiproliferative activity against human MCF7 cells assessed as cell growth inhibition; format: functional, cell-based
[16] = Antiproliferative activity against human MCF-10A cells assessed as cell growth inhibition; format: toxicity, cell-based
MDA-MB-231 [17] = assay: Antiproliferative activity against lung metastasis variant of human MDA-MB-231 cells assessed as cell growth inhibition; format: functional, cell-based
HCC1419 = assay: Antiproliferative activity against human HCC1419 cells assessed as cell growth inhibition; format: functional, cell-based
MDA-MB-231 [18] = assay: Antiproliferative activity against human MDA-MB-231 cells assessed as cell growth inhibition; format: functional, cell-based
HUVEC [19] = assay: Anti-angiogenesis activity in HUVEC cells; format: functional, cell-based; settings: Homo sapiens
[20] = Cytotoxicity against mouse MS-1 cells assessed as cell growth inhibition by anti-angiogenisis screening assay; format: toxicity, cell-based
[21] = Antiproliferative activity against human MRC9 cells assessed as cell growth inhibition measured after 72 hrs by MTT assay; format: functional, cell-based; settings: MRC9, 72 h
[22] = Cytotoxicity against mouse SVR cells assessed as cell growth inhibition by anti-angiogenisis screening assay; format: toxicity, cell-based
[23] = Cytotoxicity against HUVEC cells assessed as cell growth inhibition by anti-angiogenisis screening assay; format: toxicity, cell-based; settings: human
DLD-1 [24] = assay: Antiproliferative activity against human DLD-1 cells assessed as cell growth inhibition measured after 96 hrs; format: functional, cell-based; settings: DLD-1, 96 h
HCT-116 [25] = assay: Antiproliferative activity against human HCT116 cells assessed as cell growth inhibition measured after 96 hrs; format: functional, cell-based; settings: HCT-116, 96 h

- IC50 (MV4-11): 390 nM
- IC50 (NCI-H23): 390 nM
- IC50 (MDA-MB-468): 390 nM
- IC50 (A549 [1]): 390 nM
- IC50 (MDA-MB-231 [2]): 390 nM
SMILES: O=C1/C(=C/c2ccc(Cl)cc2Cl)CNC/C1=C\c1ccc(Cl)cc1Cl
- IC50 (MG-63): 390 nM

- GI50 (MDA-MB-231 [4]): 900 nM
SMILES: CN1C/C(=C\c2ccccc2O)C(=O)/C(=C/c2ccccc2O)C1
- IC50 (HUVEC [3]): 1100 nM
- IC50 (SVR): 1100 nM
- IC50 (RPMI-7951; RPMI-7951, 72 h): 900 nM
- IC50 [5]: 1100 nM

- IC50 (HeLa [6]): < 5000 nM
- IC50 (HepG2): < 5000 nM
- IC50 (THP-1): < 5000 nM
- IC50 (K562): < 5000 nM
SMILES: O=C1/C(=C/c2cccc(/N=C/c3ccccc3O)c2)CCC/C1=C\c1cccc(/N=C/c2ccccc2O)c1

- IC50 (AGS): 560 nM
SMILES: C#CCOc1ccc(/C=C2\CCC/C(=C\c3ccc(OCC#C)c(OC)c3)C2=O)cc1OC
- IC50 (KYSE-30): 3600 nM

- IC50 (AGS): 720 nM
SMILES: CCOc1ccc(/C=C2\CCC/C(=C\c3ccc(OCC)c(OC)c3)C2=O)cc1OC
- IC50 (KYSE-30): 3400 nM

- IC50 (HeLa [6]): < 5000 nM
- IC50 (HepG2): < 5000 nM
- IC50 (THP-1): < 5000 nM
- IC50 (K562): < 5000 nM
SMILES: O=C1/C(=C/c2cccc(/N=C/c3cccc(O)c3O)c2)CCC/C1=C\c1cccc(/N=C/c2cccc(O)c2O)c1

- IC50 (HeLa [6]): < 5000 nM
- IC50 (HepG2): < 5000 nM
- IC50 (THP-1): < 5000 nM
- IC50 (K562): < 5000 nM
SMILES: O=C1/C(=C/c2cccc(/N=C/c3ccc(O)c(O)c3O)c2)CCC/C1=C\c1cccc(/N=C/c2ccc(O)c(O)c2O)c1

- IC50 (AGS): 720 nM
SMILES: C#CCOc1ccc(/C=C2\CCC/C(=C\c3ccc(OCC#C)cc3)C2=O)cc1
- IC50 (KYSE-30): 3400 nM

- IC50 (MCF7 [15]): 1640 nM
- IC50 (MDA-MB-231 [17]): 530 nM
- IC50 (HCC1419): 1460 nM
- IC50 (MDA-MB-231 [18]): 720 nM
SMILES: CCN(CC)CCOc1cccc(C(=O)N2C/C(=C\c3ccccc3)C(=O)/C(=C/c3ccccc3)C2)c1
- IC50 [16]: 41000 nM

- GI50 (MDA-MB-231 [4]): 1000 nM
- EC50 (HeLa [14]; hela): 1030 nM and 2600 nM
SMILES: O=C(/C=C/c1ccccc1O)/C=C/c1ccccc1O
- EC50 (Ca-Ski): 1030 nM
- GI50 [20]: 1800 nM
- EC50 [21]: 4600 nM
- GI50 (RPMI-7951; RPMI-7951, time 72 hrs): 2300 nM
- GI50 [22]: 1800 nM
- GI50 [23]: 1800 nM

More lines, now with the values behind:

SMILES: COc1ccc(/C=C2\CC(C)C/C(=C\c3ccc(OC)c(OC)c3)C2=O)cc1OC (centres undefined)
- IC50 (MCF7 [7]): > 50000 nM
- IC50 [8]: > 50000 nM
- IC50 (PC-3): > 50000 nM
- IC50 (A549 [9]): > 50000 nM
- IC50 (A-431): > 50000 nM
- IC50 (GCIY): > 50000 nM
- IC50 (HuCCT-1): > 50000 nM
- IC50 (G-361): > 50000 nM
- IC50 (8505C): > 50000 nM
- IC50 (ACHN): > 50000 nM
- IC50 (HCT-116 [10]): > 50000 nM
- IC50 (Huh-7): > 50000 nM
- IC50 [11]: > 50000 nM
- IC50 (DLD-1 [12]): > 50000 nM
- IC50 [13]: > 50000 nM

SMILES: COc1cc(/C=C2\CN(C(C)=O)C/C(=C\c3cc(OC)c(OC)c(OC)c3)C2=O)cc(OC)c1OC
- IC50 (MV4-11): 390 nM
- IC50 (NCI-H23): 390 nM
- IC50 (MDA-MB-468): 390 nM
- IC50 (A549 [1]): 390 nM
- IC50 (MG-63): 390 nM
- IC50 (MDA-MB-231 [2]): 390 nM

SMILES: O=C(/C=C/c1cccc(F)c1)/C=C/c1cccc(F)c1
- EC50 (Ca-Ski): 1030 nM
- EC50 (HeLa [14]; Homo sapiens, HeLa, 72 h): 1030 nM

SMILES: COCOc1cc(/C=C/C(=O)CC(SCC(=O)OC)c2cc(OCOC)cc(OCOC)c2)cc(OCOC)c1 (centres undefined)
- IC50 (HUVEC [19]): 400 nM

SMILES: C=C1CC2CC(C1)/C(=C\c1ccc(OC)c(OC)c1)C(=O)/C2=C/c1ccc(OC)c(OC)c1
- IC50 (MCF7 [7]): > 50000 nM
- IC50 [8]: > 50000 nM
- IC50 (PC-3): > 50000 nM
- IC50 (A549 [9]): > 50000 nM
- IC50 (A-431): > 50000 nM
- IC50 (GCIY): > 50000 nM
- IC50 (HuCCT-1): > 50000 nM
- IC50 (G-361): > 50000 nM
- IC50 (8505C): > 50000 nM
- IC50 (ACHN): > 50000 nM
- IC50 (HCT-116 [10]): > 50000 nM
- IC50 (DLD-1 [24]): 8000 nM
- IC50 (Huh-7): > 50000 nM
- IC50 [11]: > 50000 nM
- IC50 (DLD-1 [12]): > 50000 nM
- IC50 [13]: > 50000 nM

SMILES: COc1cc(/C=C/C(=O)/C=C/c2cc(OC)c(OC)c(OC)c2)cc(OC)c1O
- IC50 (MCF7 [7]): 1000 nM
- IC50 [8]: 1000 nM
- IC50 (PC-3): 1000 nM
- IC50 (A549 [9]): 1000 nM
- IC50 (A-431): 1000 nM
- IC50 (GCIY): 1000 nM
- IC50 (HUVEC [19]): 400 nM
- IC50 (HuCCT-1): 1000 nM
- IC50 (G-361): 1000 nM
- IC50 (8505C): 1000 nM
- IC50 (ACHN): 1000 nM
- IC50 (HCT-116 [10]): 1000 nM
- IC50 (Huh-7): 1000 nM
- IC50 [11]: 1000 nM
- IC50 (DLD-1 [12]): 1000 nM
- IC50 [13]: 1000 nM

SMILES: COCOc1c(OC)cc(/C=C/C(=O)/C=C/c2cc(OC)c(OCOC)c(OC)c2)cc1OC
- IC50 (HCT-116 [25]): 250 nM
